# In patent EP1222921B1, “Pharmaceutical compositions of tizoxanide and/or nitazoxanide” (Romark Laboratories, L.C., priority 1997, dated 1998):
# Entries after “also recorded” stand apart in the source; their conditions may differ. Like-named read-outs stand apart in the source and are kept apart here.
# Columns and labels:
# [1] = tested on: MDBKF5D2 cell monolayers; test: Toxicity testing assay (Example III), MTS/PMS; format: cell-based
# Description: 200µl of medium containing nitazoxanide solution at the pre-mentioned concentrations and the proper controls were introduced into two wells of a 96 well plate containing confluent MDBKFD2 cell monolayers and two wells without monolayers. […] The plate was returned to the incubator in the dark to develop for 2 hours. At 2 hours, 100 µl of each supernatant was transferred to a new microtiter plate and read in the ELISA reader at 490 nm. Results were recorded and analyzed. […] (OD medium - OD drug x 100)/(OD medium) [formula] […]
# [2] = tested on: MDBKF5D2 cell monolayers; format: cell-based; conditions: cattle, 2 mg/ml
# Description: The drug was incubated on the monolayers at 37°C and 8% CO2. At 24 hours (trial 1) and 48 hours (trial 2), MTS (Owen's solution) the PMS were added to each well at concentrations of 333 µg/ml and 25 µM respectively. The plate was returned to the incubator in the dark to develop for two hours. At two hours, 100 µl of each supernatant was transferred to a new microtiter plate and read in the ELISA reader at 490nm. Results were recorded and analyzed. Percent toxicity was calculated by subtracting the mean optical density (OD) of the drug supernatants from the mean optical density (OD) of the medium control supernatants (no drug), dividing by the OD of the medium control and multiplying by 100. (OD medium - OD drug)/(OD medium)x 100 [formula]
# [3] = tested on: C. parvum oocysts; test: Intact C. parvum oocyst assay (Example III), immunofluorescence; format: cell-based, Cryptosporidium parvum; conditions: for Parasite - Mean parasite count/field (12 fields analyzed) / %Inhib - Percent inhibitation of parasite infection: 48 hr.; for %Inhib - Percent inhibitation of parasite infection: listed as New NTZdes
# Description: Each concentration of nitazoxanide and the media controls contained 0.025% DMSO as a constant. The experiment used a cell culture of MDBKF5D2 Cells grown in 7 mm chambers, and as Cryptosporidium parvum: GCH1 oocysts, 5 X 10^4 per well, and was conducted to compare paromomycin (positive control) against nitazoxanide (experimental drug). […] 5 x 104 C. parvum oocysts per well are incubated in the pre-mentioned concentrations of nitazoxanide at 37°C (8% CO2) on confluent MDBKF5D2 cell monolayers. The level of infection in each well was determined and computer analyzed by an immunofluorescence assay at 48 hours. […] (Medium control count - Drug test count)/(Medium control count)x 100 [formula] Conc. - µg/ml; Parasite - Mean parasite count/field (12 fields analyzed); %Inhib - Percent inhibitation of parasite infection; % Tox- Percent toxicity to cells by the drug.
# [4] = tested on: C. parvum oocysts; test: Intact C. parvum oocyst assay (Example II), immunofluorescence; format: cell-based, Cryptosporidium parvum; conditions: 2 mg/ml; for inhibition at 2000 µg/mL: Cryptosporidium parvum, read-out: Percent Inhibition
# Description: Nitazoxanide was dissolved in sterile dimethylsulfoxide (DMSO) and tested against intact C. parvum oocysts infected cell monolayers at concentrations of 100 µg/ml, 10 µg/ml/l µg/ml and 0.1 µg/ml. A second trail was performed which tested nitazoxanide at the additional concentrations of 20, 2, 0.2 and 0.02 µg/ml. These concentrations were achieved by serial dilutions with complete DMEM medium to yield a final DMSO concentration of 0.5%. The medium control also contacted 0.5% DMSO.
# The experiment used a cell culture of MDBKF5D2 Cells grown in 7 mm chambers, and as Cryptosporidium parvum: GCH1 oocysts, 5 X 10^4 per well, and was conducted to compare paromomycin (positive control) against nitazoxanide (experimental drug). Materials included Immune Anti-Cryptosporidium parvum Sporozoite Rabbit Serum (0.1%) and Fluorescein-Conjugated Goat Anti-Rabbit Antibody (1%).
# 5 x 104 C. parvum oocysts per well were incubated in nitazoxanide (100, 20, 10, 2, 1, 0.2, 0.1 and 0.02 µg/ml) at 37°C (8% CO2) on confluent MDBKF5D2 cell monolayers. The level of infection in each well was determined and analyzed by an immunofluorescence assay at 24 to 48 hours. Percent Inhibition was calculated by subtracting the mean parasite count/10 field in the drug test wells from the mean parasite count/10 fields in the medium control (no drug), dividing by the medium control count, and then multiplying by 100. (Medium control count - Drug test count)/(Medium control count)x 100 [formula]
# [5] = tested on: MRC5 fibroblasts; test: Toxicity on the cell monolayer in T. gondii cultures; conditions: 72 hours
# [6] = tested on: M. intracellular ATCC 13950; test: MIC by standard agar dilution; format: cell-based, Mycobacterium intracellular; conditions: Mycobacterium, ATCC13950, 504 h, Middlebrook 7H11 agar, 3 weeks
# [7] = tested on: Fasciola hepatica; test: In vitro culture of mature flukes
# Description: The in vitro efficacy of nitazoxanide and desacetyl-nitazoxanide was tested against Fasciola hepatica. Mature F. hepatica were recovered from the bile ducts of 3 calf livers condemned due to fasciolosis at the Louisiana Veterinary Medical Diagnostic Laboratory at the Hardy's Meat […], Bunkie, LA. Flukes were washed in sterile saline for 1 hour and transferred to sterile saline or RPMI (pH 7.4) for an additional 3 hours. Flukes were then held in sterile RPMI-rabbit serum (50:50 v/v) or sterile RPMI (pH 7.4) overnight at 37°C with 5% CO2. In vitro culture (37°C, 5% CO2) was done according to a modification of the method of Ibarra and Jenkins ([…]. 70:655-661, 1984). […] Only flukes that had normal activity and morphology were used. […] Two control flukes were included in each replicate, […] and one in unmedicated culture media […]. Flukes were examined for the effects of drug treatment as evidenced by death, motility disturbances or morpholgic changes as compared to untreated control flukes, using a backlighted panel and a lighted 3X magnifying lens.
# [8] = tested on: RH strain of Toxoplasma gondii; test: Toxoplasma gondii growth in MRC5 fibroblast cultures, ELISA; format: cell-based
# [9] = 48 hr., Conc 0.01 µg/ml, 0.025% DMSO
# [10] = 48 hr., Conc 0.1 µg/ml, 0.025% DMSO
# [11] = 48 hr., Conc 1 µg/ml, 0.025% DMSO
# [12] = 48 hr., Conc 10 µg/ml, 0.025% DMSO
structure (smiles),measurement,setting,value
"NC[C@@H]1O[C@H](O[C@H]2[C@@H](O)[C@H](O[C@@H]3[C@@H](O)[C@H](N)C[C@H](N)[C@H]3O[C@H]3O[C@H](CO)[C@@H](O)[C@H](O)[C@H]3N)O[C@@H]2CO)[C@H](N)[C@@H](O)[C@@H]1O [Paromomycin, reference compound]",%Tox - Percent toxicity to cells by the drug,"[1]; cattle, 48 h, 2000 µg/ml",39.79%
same,Tox/OD,"[1]; cattle, 48 h, 2000 µg/ml",1.219
same,Percent Toxicity,[2]; 24 h,23.8%
same,Percent Toxicity,[2]; 48 h,40.8%
same,Parasite - Mean parasite count/field (12 fields analyzed),"[3]; Conc 2000 µg/ml, aqueous media",115.75
same,inhibition at 2000 µg/mL,"[3]; Cryptosporidium parvum, 48 h, Conc 2000 µg/ml, aqueous media, read-out: %Inhib - Percent inhibitation of parasite infection",83%
same,inhibition at 2000 µg/mL,"[3]; Cryptosporidium parvum, concentration of 2,000 µg/ml, positive control, Examples II and III, read-out: inhibition (range over the experiments)",51 to 83%
same,times less effective (than nitazoxanide),"[3]; same experimental condition, positive control","2,000 times"
same,inhibition at 2000 µg/mL,[4]; Trial 1: 24 hrs,51%
same,inhibition at 2000 µg/mL,[4]; Trial 2: 48 hrs,74%
same,Mean (+ SD) Parasite Count/10 Fields,[4]; Trial 1: 24 hrs,482(±47.1)
same,Mean (+ SD) Parasite Count/10 Fields,[4]; Trial 2: 48 hrs,580(+33.42)
"O=C(Nc1ncc([N+](=O)[O-])s1)c1ccccc1O [Tizoxanide, desacetyl-nitazoxanide]",%Tox - Percent toxicity to cells by the drug,[1]; [9],4.36%
same,Score (cytotoxicity score),[1]; [9],0 (0.5% toxicity = 0)
same,Tox/OD,"[1]; 48 hr., Conc 0.01 µg/ml, 0.025% DMSO, OD at 490 nm",1.721
same,%Tox - Percent toxicity to cells by the drug,[1]; [10],16.29%
same,Score (cytotoxicity score),[1]; [10],1 (6-25% toxicity = 1)
same,Tox/OD,"[1]; 48 hr., Conc 0.1 µg/ml, 0.025% DMSO, OD at 490 nm",1.506
same,%Tox - Percent toxicity to cells by the drug,[1]; [11],4.97%
same,Score (cytotoxicity score),[1]; [11],0 (0.5% toxicity = 0)
same,Tox/OD,"[1]; 48 hr., Conc 1 µg/ml, 0.025% DMSO, OD at 490 nm",1.710
same,%Tox - Percent toxicity to cells by the drug,[1]; [12],81.27%
same,Score (cytotoxicity score),[1]; [12],4 (76-100% toxicity =- 4)
same,Tox/OD,"[1]; 48 hr., Conc 10 µg/ml, 0.025% DMSO, OD at 490 nm",.337
same,concentrations with marked toxicity on the cell monolayer,[5],≥ 2500 ng/mL
same,Parasite - Mean parasite count/field (12 fields analyzed),"[3]; Conc 0.01 µg/ml, 0.025% DMSO",749.33
same,Parasite - Mean parasite count/field (12 fields analyzed),"[3]; Conc 0.1 µg/ml, 0.025% DMSO",649.86
same,Parasite - Mean parasite count/field (12 fields analyzed),"[3]; Conc 1 µg/ml, 0.025% DMSO",39.92
same,%Inhib - Percent inhibitation of parasite infection,"[3]; Conc 1 µg/ml, 0.025% DMSO",93.65%
same,Parasite - Mean parasite count/field (12 fields analyzed),"[3]; Conc 10 µg/ml, 0.025% DMSO",13.75
same,%Inhib - Percent inhibitation of parasite infection,"[3]; Conc 10 µg/ml, 0.025% DMSO",97.81%
same,inhibition at 0.01 µg/mL,"[3]; Cryptosporidium parvum, 48 h, Conc 0.01 µg/ml, 0.025% DMSO, read-out: %Inhib - Percent inhibitation of parasite infection",≤ 0%
same,inhibition at 0.1 µg/mL,"[3]; Cryptosporidium parvum, 48 h, Conc 0.1 µg/ml, 0.025% DMSO, read-out: %Inhib - Percent inhibitation of parasite infection",≤ 0%
same,inhibition at 1 µg/mL,"[3]; Cryptosporidium parvum, 48 h, Conc 1 µg/ml, 0.025% DMSO, read-out: %Inhib - Percent inhibitation of parasite infection",94%
same,inhibition at 10 µg/mL,"[3]; Cryptosporidium parvum, 48 h, Conc 10 µg/ml, 0.025% DMSO, read-out: %Inhib - Percent inhibitation of parasite infection",98%
same,MIC,[6],4 µg/mL
same,"effects on flukes (death, motility disturbances)","[7]; 1 µg treatment, listed as D-NTZ",Some slowing of activity was noted in the 1 µg group at 42-74 hours; also recorded: only 3 active and one moribund fluke remained alive at 91 hours; also recorded: at 115 hours only one sluggish fluke remained
same,"effects on flukes (death, motility disturbances)","[7]; 3 µg treatment, listed as D-NTZ",Reduced activity in some individuals was seen by 24 hours in the 5 µg and 3 µg groups with a somewhat slower onset at 3 µg; also recorded: all were dead in the 3 and 5 µg treatment wells by 50 hours except one sluggish fluke in each group
same,"effects on flukes (death, motility disturbances)","[7]; 5 µg treatment, listed as D-NTZ",Reduced activity in some individuals was seen by 24 hours; also recorded: all were dead in the 3 and 5 µg treatment wells by 50 hours except one sluggish fluke in each group
same,"effects on flukes (death, motility disturbances)","[7]; 10 µg treatment, listed as D-NTZ","reduced activity was noted at 1, 3 and 4 hours; also recorded: all were moribund or dead by 7 hours"
same,"effects on flukes (death, motility disturbances)","[7]; 25 µg treatment, listed as D-NTZ","Four of 7 flukes in the 25 µg treatment were moribund, two were active, and one was sluggish within the first hour; also recorded: all were dead except two sluggish flukes by three hours; also recorded: only one sluggish fluke remained alive after four hours"
same,"effects on flukes (death, motility disturbances)",[7]; 50 µg treatment,moribund or dead within one hour
same,"effects on flukes (death, motility disturbances)",[7]; 100 µg treatment,moribund or dead within one hour
same,time to rapid fluke death,[7]; in vitro medication rate 10µg,6 to 7 h
same,time to rapid fluke death,[7]; in vitro medication rate 25 µg,≤ 4 h
same,time to rapid fluke death,[7]; in vitro medication rates of >50 µg,≤ 1 h
same,concentration with significant effect (inhibition),[8]; 72 hours,≥ 0.6 mg/L
same,IC50,"[8]; Toxoplasma gondii, MRC5, 72 hours, estimated from regression analysis, read-out: 50% inhibitory concentration",1.2 µg/mL
same,concentrations at which a marked inhibition of Toxoplasma growth could be observed,"[8]; alteration of the parasitophorous vacuole, no marked alteration of the parasite itself",approximately 1.2 mg/L
